The target of this test is T1, RgnTDC (Mediterraneibacter gnavus, UniProt A7B1V0).
T1 construct: gene RUMGNA_01526; recombinant, purified; construct details only in the supplement
Put plainly: decarboxylation turnover assay of purified enzyme. It is filed as biochemical. The settings on record: native substrate.

Take `N[C@@H](Cc1c[nH]c2ccccc12)C(=O)O` [Trp]: the “decarboxylation turnover assay of purified enzyme” value was “we observed only a slight decrease in activity on Trp and Phe”.

Values taken from PMC9643649, “Engineering Enzyme Substrate Scope Complementarity for Promiscuous Cascade Synthesis of 1,2‐Amino Alcohols” (Angewandte Chemie (International Ed. in English), 2022).
